Assays:
[1] = tested on: Virginia buttonweed (DIQVI); assay: Postemergent granule herbicides, turfgrass field studies; format: in vivo, Diodia virginiana L.; settings: Table III, 1 site
Description: (§1) Field studies were conducted in established turfgrass sites containing a natural population of target broadleaf weeds. Replicated trials, containing a minimum of three replications and having individual plots ranging in size from 25 to 50 ft. sq (2.3 to 4.6 square meters), were initiated in the late spring when turf and weeds were actively growing. Granule treatments were uniformly applied to individual plots using a common hand-shaker method. Applications were made in the early morning when dew was present. Natural rainfall and supplemental irrigation were used to maintain healthy turf and active weed growth throughout the study period. Control of each weed species in the study site was made at 2, 4 and 8 weeks after treatment. Control was determined visually by comparing treated and untreated weeds and scored on a 0 to 100 percent scale where 0 corresponds to no control and 100 corresponds to complete kill.

[2] = tested on: broadleaf plantain (PLAMA); assay: Granule carrier/particle size, post emergence greenhouse study; format: in vivo, Plantago major L.; settings: postemergent greenhouse
Description: Greenhouse and field studies evaluated the effect of two granule carriers and two particles sizes on the postemergent broadleaf activity of penoxsulam. The two carriers were a 46-0-0 and 28-4-12 fertilizer blend and the particle sizes averaged 0.75 mm and 2.15 mm.
Greenhouse studies were applied both post and pre-emergence to broadleaf weeds and sedge reared from seed or nutlet in 12.7″ (32.25 cm) by 8.8″ (22.35 cm) flats of a loam soil. Particle size and carrier were evaluated post emergence, carrier comparisons with the smaller particle size of 0.75 was evaluated pre-emergence. Stage of growth of species at post emergence application: PLAMA and TAROF in the 3 to 5 leaf stage, TRFRE in the 3rd tri-foliate stage and CYPES in the 3 to 4 leaf stage. Post emergence trial design was a replicated block, one species per flat, 3 replicate flats per treatment. Granule treatments were uniformly applied to individual flats on an area basis using a common hand-shaker method. Post emergence applications were made to the flat covering both soil and misted foliage. Trial was sub-irrigated daily, and watered over the top 1 time per week starting 7 days after application to simulate a natural rainfall event. Active weed growth was maintained throughout the study period. Weed control of each species in the post emergence study was assessed at 2, 3 and 4 weeks after treatment. Pre-emergence trial design was 2 species per flat, 4 replicate flats, block design. Pre-emergence applications were made to the soil surface using a common hand shaker method on an area basis. Overhead irrigation was maintained throughout the trial. Weed control of each species in the pre-emergence study was assessed at 2, 3, 4 and 5 weeks after application. Control was determined visually by comparing treated and untreated flats and scored on a 0 to 100 percent scale where 0 corresponds to no control and 100 corresponds to complete kill.

[3] = tested on: Hydrocotyle species (HYDSS); assay: Post emergent synergy field study, penoxsulam + dicamba granule; format: in vivo; settings: average of 2 studies 4 weeks after application
Description: as §1, with “Field and greenhouse studies were conducted to determine if there may be any synergistic response when penoxsulam is combined with other herbicides for post emergence broadleaf or sedge control. Field” for “Field”
Component A was penoxsulam at 0.02 or 0.04 lb ai/A. Component B was dicamba at 0.1 lb ai/A. Individual products and mixture were applied on a 30-3-4 granule fertilizer formulated to deliver 116 pounds fertilizer per acre (129 kg per hectare). Loadings for the individual component on the fertilizer were: • Penoxsulam 22.4 gai/Ha (0.02 lb ai/A)=0.017% • Penoxsulam 44.9 gai/Ha (0.04 lb ai/A)=0.034% • Dicamba 112 gae/Ha (0.1 lb ai/A)=0.086%
For combinations the same loadings were applied to the same granule carrier and applied as a single product to test area.

common mallow (MALNE) = assay: Pre-emergence orchard floor weeds, greenhouse study; format: in vivo, Malva neglecta; settings: 28 Days After Application
Description: Greenhouse studies were conducted by seeding species in a loam soil and applying the herbicides to the soil surface using a Cornwall 5 milliliter glass syringe fitted with a TeeJet TN-3 nozzle on an area basis Immediately following herbicide application the pots were irrigated over the top to move the herbicides into the seeding zone. Pots were kept well irrigated throughout the trial. A percent visual weed control assessment was taken 4 weeks after application. Control was determined visually by comparing treated and untreated pots and scored on a 0 to 100 percent scale where 0 corresponds to no control and 100 corresponds to complete kill, or no emergence.

redroot pigweed (AMARE) = assay: Pre-emergence weed nursery field study; format: in vivo, Amaranthus retroflexus; settings: weed nursery in the field, 27 Days After Application
Description: (§2) Field studies were conducted in a non-fumigated weed nursery trial. Weed species were planted in single strips with a row planter at 36 centimeter spacing. Plot size was 3.05×9.2 meters, 4 replicate plots per treatment. Weed species were seeded at appropriate depths and later the same day pre-emergent applications were made to the soil surface. Liquid applications were made using a backpack sprayer calibrated to deliver 187 liters per hectare (L/ha). Applications were made in Fresno, Calif. in June. Sprinkler irrigation was applied at regular intervals throughout study period. Control of each weed species in the study site was made 4 weeks after treatment. Control was determined visually by comparing treated and untreated weeds and scored on a 0 to 100 percent scale where 0 corresponds to no control and 100 corresponds to complete kill or no emergence.

giant foxtail (SETFA) = assay: Pre-emergence weed nursery field study; format: in vivo, Setaria faberi; settings: weed nursery in the field, 27 Days After Application
Description: as §2

COc1cnc(OC)n2nc(NS(=O)(=O)c3c(OCC(F)F)cccc3C(F)(F)F)nc12 [Penoxsulam, 2-(2,2-difluoroethoxy)-N-(5,8-dimethoxy[1,2,4]triazolo[1,5-c]-pyrimidin-2-yl)-6-(trifluoromethyl)benzenesulfonamide]
Mean Percent Weed Control ([1]; 4 Weeks After Treatment, 22.4 gai/Ha): 67% | Mean Percent Weed Control ([1]; 4 Weeks After Treatment, 44.9 gai/Ha): 76% | Mean Percent Weed Control ([1]; 4 Weeks After Treatment, 67.3 gai/Ha): 93% | Mean Percent Weed Control ([1]; 4 Weeks After Treatment, 100 gai/Ha): 92% | Mean Percent Weed Control ([1]; 8 Weeks After Treatment, 22.4 gai/Ha): 48% | Mean Percent Weed Control ([1]; 8 Weeks After Treatment, 44.9 gai/Ha): 63% | Mean Percent Weed Control ([1]; 8 Weeks After Treatment, 67.3 gai/Ha): 87% | Mean Percent Weed Control ([1]; 8 Weeks After Treatment, 100 gai/Ha): 78% | Percent Weed Control 27-30 DAA ([2]; carrier 28-4-12, particle size 0.75 mm, 5.6 gai/Ha): 35% | Percent Weed Control 27-30 DAA ([2]; carrier 28-4-12, particle size 0.75 mm, 11.2 gai/Ha): 75% | Percent Weed Control 27-30 DAA ([2]; carrier 28-4-12, particle size 0.75 mm, 22.4 gai/Ha): 96% | Percent Weed Control 27-30 DAA ([2]; carrier 28-4-12, particle size 2.15 mm, 5.6 gai/Ha): 0% | Percent Weed Control 27-30 DAA ([2]; carrier 28-4-12, particle size 2.15 mm, 11.2 gai/Ha): 27% | Percent Weed Control 27-30 DAA ([2]; carrier 28-4-12, particle size 2.15 mm, 22.4 gai/Ha): 38% | Percent Weed Control 27-30 DAA ([2]; carrier 46-0-0, particle size 0.75 mm, 5.6 gai/Ha): 47% | Percent Weed Control 27-30 DAA ([2]; carrier 46-0-0, particle size 0.75 mm, 11.2 gai/Ha): 77% | Percent Weed Control 27-30 DAA ([2]; carrier 46-0-0, particle size 0.75 mm, 22.4 gai/Ha): 97% | Percent Weed Control 27-30 DAA ([2]; carrier 46-0-0, particle size 2.15 mm, 5.6 gai/Ha): 8% | Percent Weed Control 27-30 DAA ([2]; carrier 46-0-0, particle size 2.15 mm, 11.2 gai/Ha): 15% | Percent Weed Control 27-30 DAA ([2]; carrier 46-0-0, particle size 2.15 mm, 22.4 gai/Ha): 50% | % Control Component A ([3]; 22.4 gai/Ha on 30-3-4 granule fertilizer): 37% | % Control Component A ([3]; 44.9 gai/Ha on 30-3-4 granule fertilizer): 59% | Pre-emergent Percent Mean Control (common mallow (MALNE); 8.8 gai/Ha): 60% | Pre-emergent Percent Mean Control (common mallow (MALNE); 17.5 gai/Ha): 92% | Pre-emergent Percent Mean Control (common mallow (MALNE); 35 gai/Ha): 95% | Pre-emergent Percent Mean Control (common mallow (MALNE); 70 gai/Ha): 98% | Pre-emergent Percent Mean Control (redroot pigweed (AMARE); 8.8 gai/Ha): 100% | Pre-emergent Percent Mean Control (redroot pigweed (AMARE); 17.5 gai/Ha): 100% | Pre-emergent Percent Mean Control (redroot pigweed (AMARE); 35 gai/Ha): 100% | Pre-emergent Percent Mean Control (redroot pigweed (AMARE); 70 gai/Ha): 100% | Pre-emergent Percent Mean Control (giant foxtail (SETFA); 8.8 gai/Ha): 70% | Pre-emergent Percent Mean Control (giant foxtail (SETFA); 17.5 gai/Ha): 78% | Pre-emergent Percent Mean Control (giant foxtail (SETFA); 35 gai/Ha): 88% | Pre-emergent Percent Mean Control (giant foxtail (SETFA); 70 gai/Ha): 96%

Reference: patent US8455397B2, “Penoxsulam as a turfgrass, vineyard and orchard floor herbicide” (Dow AgroSciences, LLC, priority 2005, dated 2013)
